From patent US20130310344A1, “N-ACYLSULFONAMIDE APOPTOSIS PROMOTERS” (ASTRAZENECA AB, priority 2010, published 2013) come the findings set out here.

SMILES strings stand for the structures. Structures can show the parent of a compound that is named as a salt.

Assay [1] addresses T1, Bcl-XL (Homo sapiens, UniProt Q07817).
T1 construct: a C-terminal 6×HIS tagged Bcl-XL (aa 1-209); 6xHis (C)
As to the kind of experiment: Bcl-XL FP assay (competitive fluorescence polarization binding assay, FITC-Bim BH-3 peptide tracer). As to conditions: C-terminal 6×HIS tagged Bcl-XL (aa 1-209), 0.8 nM; 2 nM FITC-Bim peptide tracer. An excerpt:
(§1) Bcl-xL and Bcl-2 FP binding affinity of compound(s) of Formulae (I), (I-a), (I-b), (I-c), (I-d) and/or (I-e) may be determined using a variety of known methods. One such assay is a sensitive and quantitative in vitro binding assay using fluorescence polarization (“FP”) described by Wang, J.-L.; Zhang, Z-J.; Choksi, S.; Sjam. S.; Lu, Z.; Croce, C. M.; Alnemri, E. S.; Komgold, R.; Huang, Z. Cell permeable Bcl-2 binding peptides: a chemical approach to apoptosis induction in tumor cells. Cancer Res. 2000, 60, 1498-1502).
(§2) Additionally, the binding affinity of compound(s) of Formulae (I), (I-a), (I-b), (I-c), (I-d) and/or (I-e) to Bcl-2 protein in vitro was determined by a competitive binding assay based on fluorescence polarization. For example, fluorescence polarization (“FP”) assays may be developed using a c-terminal 6×HIS tagged Bcl-2 (aa 1-204) and a C-terminal 6×HIS tagged Bcl-XL (aa 1-209). […] Dilutions of either Bcl-2 (1.3 nM) or Bcl-XL (0.8 nM) may be added to serial dilutions of antagonist and incubated for one hour prior to the addition of 2 nM of fluorescent peptide tracer (Anaspec, Fremont, Calif.) in the assay buffer. Final assay buffer conditions may be 20 mM HEPES, pH 7.5, 1 mM DTT, 0.005% Tween-20 and 50 mM NaCl. Samples may be read after 20-minute incubation. Fluorescence polarization values may be plotted as a function of the antagonist concentration.
On the technique in general: Polarisation of emitted light reports the rotation of a fluorescent probe.

For assay [2], the target named is T2, Bcl-2 (Homo sapiens, UniProt P10415).
T2 construct: a c-terminal 6×HIS tagged Bcl-2 (aa 1-204); 6xHis (C)
As to the kind of experiment: Bcl-2 FP assay (competitive fluorescence polarization binding assay, FITC-Bim BH-3 peptide tracer). As to conditions: c-terminal 6×HIS tagged Bcl-2 (aa 1-204), 1.3 nM; 2 nM FITC-Bim peptide tracer.
From the text: as §1, §2

T1 sequence (Q07817 1-209): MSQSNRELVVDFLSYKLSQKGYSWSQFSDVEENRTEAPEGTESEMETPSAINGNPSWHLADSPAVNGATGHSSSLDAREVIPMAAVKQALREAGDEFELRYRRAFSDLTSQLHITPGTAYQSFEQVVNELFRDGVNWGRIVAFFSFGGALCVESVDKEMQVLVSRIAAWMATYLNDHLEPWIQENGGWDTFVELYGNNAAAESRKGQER
T2 sequence (P10415 1-204): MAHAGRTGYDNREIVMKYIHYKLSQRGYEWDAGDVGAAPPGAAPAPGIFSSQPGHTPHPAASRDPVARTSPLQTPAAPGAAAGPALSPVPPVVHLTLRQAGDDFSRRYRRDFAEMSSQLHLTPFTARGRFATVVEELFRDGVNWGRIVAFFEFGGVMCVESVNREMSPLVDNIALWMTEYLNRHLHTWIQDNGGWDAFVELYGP

One may read the IC50 as the concentration that inhibits the measured activity by half. A lower IC50 goes with greater potency. In the case of `O=C(NS(=O)(=O)c1ccc(N[C@H](CCN2CCO[C@H](CO)C2)CSc2ccccc2)c(S(=O)(=O)C(F)(F)F)c1)c1ccc(N2CCC([C@@H](O)c3ccccc3-c3ccc(Cl)cc3)CC2)cc1` [Example 23, 4-(4-((R)-(4′-chlorobiphenyl-2-yl)(hydroxy)methyl)piperidin-1-yl)-N-(4-((R)-4-((S)-2-(hydroxymethyl)morpholino)-1-(phenylthio)butan-2-ylamino)-3-(trifluoromethylsulfonyl)phenylsulfonyl)benzamide, formic acid salt], the 50% inhibitory concentration (IC50) in assay [1] and in assay [2] was 1 nM in each case.
As for `CC(C)(C)OP(=O)(O)OCO[C@@H](c1ccccc1-c1ccc(Cl)cc1)C1CCN(c2ccc(C(=O)NS(=O)(=O)c3ccc(N[C@H](CCN4CCOCC4)CSc4ccccc4)c(S(=O)(=O)C(F)(F)F)c3)cc2)CC1` [Example 28, tert-Butyl((R)-(4′-chlorobiphenyl-2-yl)(1-(4-(4-((R)-4-morpholino-1-(phenylthio)butan-2-ylamino)-3-(trifluoromethylsulfonyl)phenylsulfonylcarbamoyl)-phenyl)piperidin-4-yl)methoxy)methyl hydrogen phosphate], the half-inhibitory concentration (IC50) in assay [1] amounted to 2 nM; in assay [2] it was 4 nM.
As to `CCOP(=O)(OCC)O[C@@H](c1ccccc1-c1ccc(Cl)cc1)C1CCN(c2ccc(C(=O)NS(=O)(=O)c3ccc(N[C@H](CCN4CCOCC4)CSc4ccccc4)c(S(=O)(=O)C(F)(F)F)c3)cc2)CC1` [Example 29, (R)-(4′-chlorobiphenyl-2-yl)(1-(4-(4-((R)-4-morpholino-1-(phenylthio)butan-2-ylamino)-3-(trifluoromethylsulfonyl)phenylsulfonylcarbamoyl)phenyl)piperidin-4-yl)methyl diethyl phosphate, hydrochloride salt], the IC50 in assay [1] came to 12 nM; in assay [2], 30 nM.
On the same counts, the results for `COP(=O)(O)O[C@@H](c1ccccc1-c1ccc(Cl)cc1)C1CCN(c2ccc(C(=O)NS(=O)(=O)c3ccc(N[C@H](CCN4CCOCC4)CSc4ccccc4)c(S(=O)(=O)C(F)(F)F)c3)cc2)CC1` [Example 30, (R)-(4′-chlorobiphenyl-2-yl)(1-(4-(4-((R)-4-morpholino-1-(phenylthio)butan-2-ylamino)-3-(trifluoromethylsulfonyl)phenylsulfonylcarbamoyl)phenyl)piperidin-4-yl)methyl methyl hydrogen phosphate, hydrochloride salt] are 1 nM and 1 nM.
For `N[C@@H](c1ccccc1-c1ccc(Cl)cc1)C1CCN(c2ccc(C(=O)NS(=O)(=O)c3ccc(N[C@H](CCN4CCOCC4)CSc4ccccc4)c(S(=O)(=O)C(F)(F)F)c3)cc2)CC1` [Example 33, 4-(4-((R)-amino(4′-chlorobiphenyl-2-yl)methyl)piperidin-1-yl)-N-(4-((R)-4-morpholino-1-(phenylthio)butan-2-ylamino)-3-(trifluoromethylsulfonyl)phenylsulfonyl)benzamide, formic acid salt] the same measures were 33 nM and 30 nM.
On the same counts, the results for `CNCC(=O)N[C@@H](c1ccccc1-c1ccc(Cl)cc1)C1CCN(c2ccc(C(=O)NS(=O)(=O)c3ccc(N[C@H](CCN4CCOCC4)CSc4ccccc4)c(S(=O)(=O)C(F)(F)F)c3)cc2)CC1` [Example 34, 4-(4-((R)-(4′-chlorobiphenyl-2-yl)(2-(methylamino)acetamido)methyl)piperidin-1-yl)-N-(4-((R)-4-morpholino-1-(phenylthio)butan-2-ylamino)-3-(trifluoromethylsulfonyl)phenylsulfonyl)benzamide, hydrochloride salt] are 19 nM and 27 nM.
On to `NCC(=O)N[C@@H](c1ccccc1-c1ccc(Cl)cc1)C1CCN(c2ccc(C(=O)NS(=O)(=O)c3ccc(N[C@H](CCN4CCOCC4)CSc4ccccc4)c(S(=O)(=O)C(F)(F)F)c3)cc2)CC1` [Example 35, 4-(4-((R)-(2-aminoacetamido)(4′-chlorobiphenyl-2-yl)methyl)piperidin-1-yl)-N-(4-((R)-4-morpholino-1-(phenylthio)butan-2-ylamino)-3-(trifluoromethylsulfonyl)phenylsulfonyl)benzamide hydrochloride salt], for which the IC50 in assay [1] was determined as 22 nM; in assay [2], 38 nM.
On the same counts, the results for `CN(C)[C@@H](c1ccccc1-c1ccc(Cl)cc1)C1CCN(c2ccc(C(=O)NS(=O)(=O)c3ccc(N[C@H](CCN4CCOCC4)CSc4ccccc4)c(S(=O)(=O)C(F)(F)F)c3)cc2)CC1` [Example 36, 4-(4-((R)-(4′-chlorobiphenyl-2-yl)(dimethylamino)methyl)piperidin-1-yl)-N-(4-((R)-4-morpholino-1-(phenylthio)butan-2-ylamino)-3-(trifluoromethylsulfonyl)phenylsulfonyl)benzamide, hydrochloride salt] are 18 nM and 24 nM.
